This note sets out measurements from patent US8933019B2, “Antiviral cell-penetrating peptides” (priority 2008, dated 2015).

Read-outs that look alike come from different tables or passages of the source. Bridge positions count the residues as written; N and C are the ends. Square brackets hold non-standard residues; d marks the D form. Peptide text beside a SMILES is read from it. S5 = C=CCCC[C@](C)(N)C(=O)O

Data set [1] deals with HIV-1 IIIB. Briefly: Release and infectivity of HIV-1 virus released from infected MT-2 cells after treatment. It is filed as cell-based. The settings on record: 500 nM, normalized for p24, TCID50. The method, then:
On the fourth day post-infection, the supernatants were collected and filtered with a 0.45 μm PVDF membrane. One aliquot of the supernatants from each sample was mixed 1:1 with a solution of 5% Triton X-100 for p24 quantification, and stored at 4° C., another aliquot was immediately frozen at −80° C. and used to compare the infectivity of the viral particles released by NYAD-201 and NYAD-202 treated cells to the viral particles released by untreated cells. The protein p24 was first quantified by sandwich-ELISA, then the viral samples were normalized for the p24 content and titered to calculate the TCID50. MT-2 cells were infected with a two fold dilutions of virus from NYAD-201 and NYAD-202 treated and untreated cells. […] On the fourth day post infection supernatants were collected for p24 quantification by sandwich-ELISA and the TCID50 was calculated by the Spearman-Karber statistical method. […]
For these reasons, not only the quantity but also the quality of the viral particles released in the supernatant was evaluated. First, the p24/viral particles released in the supernatant following NYAD-201 and NYAD-202 treatment were quantified, then starting with the same amount of p24 per sample, the viruses released in the supernatant were titered. The TCID50 was calculated and expressed as percentage infectivity with respect to the untreated positive control. […]

The subject of the next data set is HIV-1 AZT-R. To be noted: read-out: IC50 (μM ± SD), HIV-1 AZT-R; RT-resistant isolate, subtype B, MT-2, coreceptor X4. As for the experimental part:
(§1) The inhibitory activity of NYAD-201, and related stapled peptides on infection by laboratory-adapted HIV-1 strains was determined as previously described (Jiang et al. J Exp. Med 174:1557-1563, 1991) with minor modifications. Azidothymidine (AZT) was used as a positive control in the infectivity assays. In brief, 1×10^4 MT-2 cells were infected with HIV-1 at 100 TCID50 (50% tissue culture infective dose) (0.01 MOI [multiplicity of infection]) in 200 μl RPMI 1640 medium containing 10% FBS in the presence or absence of peptides at graded concentrations overnight. The culture supernatants were then removed and fresh media containing freshly prepared test peptide were added. On the fourth day post-infection, 100 μl of culture supernatants were collected from each well, mixed with equal volume of 5% Triton X-100 and tested for p24 antigen by ELISA.
(§2) In addition, NYAD-201, NYAD-202 and NYAD-203 were also tested using several laboratory-adapted and primary isolates in MT-2 cells and PBMC (peripheral blood mononuclear cells), respectively.

The next data set has as its system HIV-1 MN. To be noted: read-out: IC50 (μM ± SD), HIV-1 MN; laboratory strain, subtype B, MT-2, coreceptor X4. The method, then: as §1, §2
A further data set concerns HIV-1 SF2. To be noted: read-out: IC50 (μM ± SD), HIV-1 SF2; laboratory strain, subtype B, MT-2, coreceptor R5X4. The method, then: as §1, §2
The next data set deals with HIV-1 RF. To be noted: read-out: IC50 (μM ± SD), HIV-1 RF; laboratory strain, subtype B, MT-2, coreceptor X4. As for the experimental part:
as §1, §2

Data set [2] relates to HIV-1 IIIB. The method, then: as §1, §2
The next data set has as its system HIV-1RF/L-323-12-3. To be noted: read-out: IC50 (μM ± SD), HIV-1RF/L-323-12-3; PR-resistant isolate, subtype B, MT-2, coreceptor X4. As for the experimental part:
as §1, §2

A short description of data set [3]: Solubility, observation in the Jurkat cytotoxicity test. It is filed as physicochemical. As for the experimental part: (§3) Cytotoxicity was also evaluated in Jurkat cells using a Promega LDH leakage detection kit. Jurkat cells were plated at 10^4 cells/well in a volume of 200 μl. The test was performed after 30 min, 2 hr and 4 hr of exposure to the NYAD-201, NYAD-202 and NYAD-203 compounds.

Data set [4] can be described thus: Cytotoxicity, XTT method, MT-2 cells. It is filed as cell-based, human. To be noted: human, read-out: CC50 (μM) ± SD, cytotoxicity in MT-2 cells. The method, then: (§4) Cytotoxicity of peptides in MT-2 cells and PBMC was measured by the XTT [(sodium 3′-(1-(phenylamino)-carbonyl)-3,4-tetrazolium-bis(4-methoxy-6-nitro) bezenesulfonic acid hydrate)] method as previously described (Jiang et al., 2004). Briefly, for MT-2 cells, 100 μl of a peptide at graded concentrations was added to an equal volume of cells (1×10^5 cells/ml) in 96-well plates followed by incubation at 37° C. for 4 days, which ran parallel to the neutralization assay in MT-2 (except medium was added instead of virus). In the case of PBMC, 5×10^5 cells/ml were used and the cytotoxicity was measured after 7 days. After addition of XTT (PolySciences, Inc.), the soluble intracellular formazan was quantitated colorimetrically at 450 nm 4 hr later with a reference at 620 nm. The percent of cytotoxicity and the CC50 values were calculated as above (Table 2 and Table 3).
(Formazan colour is commonly taken as a measure of viable cells.)

The subject of another data set is Jurkat cells. Briefly: Cytotoxicity, LDH leakage, Jurkat cells. It is filed as cell-based. To be noted: 30 min, 2 hr and 4 hr of exposure. As for the experimental part: as §3
Data set [5] in a line: Cytotoxicity, XTT method, PBMC. To be noted: human. It is filed as cell-based. As for the experimental part: as §4
The next data set relates to HIV-1 89.6. It is filed as cell-based. The settings on record: laboratory strain, subtype B, PBMC, coreceptor R5X4; read-out: IC50 (μM ± SD), HIV-1 89.6. The method, then: (§5) The inhibitory activity of peptides on infection by primary HIV-1 isolates was determined as previously described (Jiang et al., Antimicrob. Agents Chemother. 48:4349-4359, 2004). Peripheral blood mononuclear cells (PBMCs) were isolated from the blood of healthy donors at the New York Blood Center by standard density gradient centrifugation using Histopaque-1077 (Sigma-Aldrich). The cells were cultured at 37° C. for 2 hr. Nonadherent cells were collected and resuspended at 5×10^6 cells/ml RPMI-1640 medium containing 10% FBS, 5 μg/ml PHA, and 100 U/ml IL-2 (Sigma-Aldrich), followed by incubation at 37° C. for 3 days. The PHA-stimulated cells (5×10^4 cells/well) were infected with primary HIV-1 isolates at 500 TCID50 (0.01 MOI) in the absence or presence of peptide inhibitor at graded concentrations. Culture media were changed every 3 days and replaced with fresh media containing freshly prepared inhibitor. The supernatants were collected 7 days post-infection and tested for p24 antigen by ELISA (FIG. 6). The percent inhibition of p24 production, IC50 and IC90 values were calculated by the GraphPad Prism software (GraphPad Software Inc.).
(§6) In addition, NYAD-201, NYAD-202 and NYAD-203 were also tested using several laboratory-adapted and primary isolates in MT-2 cells and PBMC (peripheral blood mononuclear cells), respectively. The inhibition of p24 production in MT-2 cells by NYAD-201 and its analogs were measured over a range of concentrations and the concentration required to inhibit 50% (IC50) of the p24 production was calculated. […] NYAD-201 and its analogs inhibited the laboratory strains with low μM potency (IC50˜2-8 μM), and both R5- and X4-tropic viruses were inhibited with similar potency.

For the next data set, the system named is HIV-1 BaL. It is filed as cell-based. To be noted: laboratory strain, subtype B, PBMC, coreceptor R5; read-out: IC50 (μM ± SD), HIV-1 BaL. As for the experimental part: as §5, §6
For the next data set, the system named is HIV-1 98CN009. Briefly: Inhibition of primary HIV-1 isolate, p24 ELISA, PBMC. To be noted: subtype C, coreceptor R5, read-out: IC50 (μM ± SD), HIV-1 98CN009. It is filed as cell-based. The method, then: as §5
(§7) NYAD-201, NYAD-202 and NYAD-203 were also tested against a set of primary HIV-1 isolates in PBMC representing mostly group M and one from group O with diverse coreceptor usage. […] The inhibitory activities of the peptides against this diverse range of primary isolates were similar, indicating its effectiveness against a wide range of HIV-1 isolates.
For orientation: An ELISA detects its analyte on a solid surface through an enzyme-linked reagent.

The next data set has as its system HIV-1 CMU02. The description is as above. It is filed as cell-based. To be noted: subtype EA, coreceptor X4, read-out: IC50 (μM ± SD), HIV-1 CMU02. The method, then: as §5, §7
For another data set, the system named is HIV-1 93IN101. The data set is described as above. The settings on record: subtype C, coreceptor R5, read-out: IC50 (μM ± SD), HIV-1 93IN101. It is filed as cell-based. As for the experimental part: as §5, §7
Another data set deals with HIV-1 RU570. The description is as above. The settings on record: subtype G, coreceptor R5, read-out: IC50 (μM ± SD), HIV-1 RU570. It is filed as cell-based. The method, then: as §5, §7
A further data set deals with HIV-1 92US657. The data set is described as above. It is filed as cell-based. To be noted: subtype B, coreceptor R5, read-out: IC50 (μM ± SD), HIV-1 92US657. The method, then: as §5, §7
In a further data set the test system is HIV-1 93RW024. The data set is described as above. It is filed as cell-based. The settings on record: subtype A, coreceptor R5X4, read-out: IC50 (μM ± SD), HIV-1 93RW024. As for the experimental part: as §5, §7
The next data set has as its system HIV-1 92UG029. The data set is described as above. It is filed as cell-based. The settings on record: subtype A, coreceptor X4, read-out: IC50 (μM ± SD), HIV-1 92UG029. As for the experimental part:
as §5, §7

The subject of the next data set is HIV-1 BCF02. Described as above. It is filed as cell-based. To be noted: (Group 0), coreceptor R5, read-out: IC50 (μM ± SD), HIV-1 BCF02. As for the experimental part: as §5, §7
The subject of another data set is HIV-1 93BR020. The data set is described as above. To be noted: subtype F, coreceptor R5X4, read-out: IC50 (μM ± SD), HIV-1 93BR020. It is filed as cell-based. The method, then:
as §5, §7

In the case of `Cc1c(O)cccc1C(=O)N[C@@H](CSc1ccccc1)[C@H](O)CN1C[C@H]2CCCC[C@H]2C[C@H]1C(=O)NC(C)(C)C` [NFV, nelfinavir, reference compound], the “Infectivity of virus produced by treated cells” value in the data set on HIV-1 IIIB [1] is on record as “not infectious or slightly infectious”.
Turning to `CSCC[C@@H]1NC(=O)[C@H](Cc2c[nH]c3ccccc23)NC(=O)[C@@](C)(NC(=O)[C@H](CCCCN)NC(=O)[C@@H](NC(=O)[C@H](C)NC(=O)[C@H](CCC(N)=O)NC(=O)[C@H](C)N)C(C)C)CCCC=CCCC[C@@](C)(C(=O)N[C@H](C(=O)N[C@@H](CC(C)C)C(=O)N[C@@H](CC(C)C)C(=O)N[C@H](C(=O)N[C@@H](C)C(N)=O)C(C)C)[C@@H](C)O)NC(=O)[C@H]([C@@H](C)O)NC1=O` [NYAD-202, AQAVKXWMTXTLLVA] (H-AQAVK[S5]WMT[S5]TLLVA-NH2; staple 6-10), the IC50 in the data set on HIV-1 AZT-R was 4.53 ± 1.19 µM; in the data set with HIV-1 MN, 2.47 ± 0.71 µM; in the data set on HIV-1 SF2 it was 4.48 ± 0.84 µM; in the data set with HIV-1 RF, 2.64 ± 0.39 µM; with HIV-1 IIIB [2] (read-out: IC50 (μM ± SD), HIV-1 IIIB, laboratory strain, subtype B, MT-2, coreceptor X4), 2.36 ± 0.33 µM; in the data set on HIV-1 IIIB [2] (read-out: IC50 (μM) ± SD, antiviral activity against HIV-1 IIIB, MT-2 cells, p24 production, fourth day post-infection) it was 2.36 ± 0.33 µM. The IC50 turned out to be 3.5 ± 0.6 µM with HIV-1RF/L-323-12-3; 3.47 ± 0.22 µM in the data set with HIV-1 89.6; 2.23 ± 0.44 µM in the data set with HIV-1 BaL; 4.08 ± 0.92 µM in the data set on HIV-1 98CN009; 4.2 ± 0.01 µM in the data set with HIV-1 CMU02; 5.53 ± 0.39 µM with HIV-1 93IN101. Also, the IC50 is 6.34 ± 2.22 µM with HIV-1 RU570; 3.61 ± 0.57 µM with HIV-1 92US657; 3.71 ± 0.19 µM in the data set with HIV-1 93RW024; 3.97 ± 0.47 µM in the data set with HIV-1 92UG029; 6.2 ± 1.2 µM in the data set with HIV-1 BCF02; 2.51 ± 0.43 µM with HIV-1 93BR020. Moreover, the Solubility entry in [3] was “not very soluble”. Also, in data set [4], the CC50 at 4 days came out at 30.2 ± 4.32 µM. Also, the “Cytotoxicity in Jurkat cells (LDH leakage)” value in the data set on Jurkat cells was “did not demonstrate toxicity”. For the same compound, the CC50 at 7 days in data set [5] is greater than 116 µM.

The term CC50 denotes the concentration giving 50% cytotoxicity.
